Assay results: patent publication US20140206681A1, “BTK INHIBITORS” (priority 2013, published 2014)

Experiments:
[1] = biological target: T1, BTK enzyme (recombinant full-length BTK, hBTK) (Homo sapiens, UniProt Q06187); experiment: BTK enzyme activity assay, LANCE TR-FRET; type: biochemical; conditions: 50 pM hBTK, 2 μM biotin-A5-peptide, 25 μM ATP; 60 min compound & enzyme incubation; read-out: IC50 BTK activity value
T1 construct: recombinant protein from baculovirus-transfected Sf9 cells: full-length BTK, 6HIS-tag cleaved; 6HIS (cleaved yes); made in house; host or cells: baculovirus-transfected Sf9 cells

[2] = tested on: HeLa cells; experiment: [3H]Adenosine uptake functional cellular assay; type: cell-based; conditions: Homo sapiens, HeLa, accumulation of [3H]adenosine into HeLa cells; compound range 10 μM to […]; read-out: Adenosine uptake inhibition IC50
Summary of the method: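 Inhibition of adenosine uptake was measured in HeLa cells (ATCC CCL-2) by following accumulation of tritiated adenosine. Cells were kept overnight at 37° C. with 5% (v/v) CO2, then switched to 40 μL HBSS plus 5% (v/v) FBS. 20 μL of 500 nM [3H]adenosine was added, and uptake was counted on a Topcount NXT reader.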

T1 sequence (Q06187 whole entry): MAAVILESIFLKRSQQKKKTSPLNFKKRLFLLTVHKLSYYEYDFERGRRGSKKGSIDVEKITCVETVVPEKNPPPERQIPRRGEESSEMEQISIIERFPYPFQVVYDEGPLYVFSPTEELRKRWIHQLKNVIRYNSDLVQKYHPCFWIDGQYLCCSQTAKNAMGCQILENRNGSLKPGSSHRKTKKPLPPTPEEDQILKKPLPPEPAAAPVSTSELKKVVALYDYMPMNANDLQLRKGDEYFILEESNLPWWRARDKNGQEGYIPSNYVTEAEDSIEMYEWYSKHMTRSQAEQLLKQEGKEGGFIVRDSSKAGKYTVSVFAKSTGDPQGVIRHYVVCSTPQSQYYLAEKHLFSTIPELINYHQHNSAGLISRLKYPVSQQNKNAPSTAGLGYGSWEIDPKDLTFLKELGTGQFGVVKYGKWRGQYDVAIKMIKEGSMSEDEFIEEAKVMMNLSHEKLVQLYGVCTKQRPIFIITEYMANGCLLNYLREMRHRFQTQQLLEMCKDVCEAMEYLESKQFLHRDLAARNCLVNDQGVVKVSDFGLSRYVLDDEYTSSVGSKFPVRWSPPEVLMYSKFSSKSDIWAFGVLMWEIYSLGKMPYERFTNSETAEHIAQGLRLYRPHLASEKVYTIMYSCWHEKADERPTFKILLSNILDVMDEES

IC50 [1] | IC50 [2] | SMILES
0.72 nM | 1110 nM | CCOc1cc(C(=O)Nc2cc(C(F)(F)F)ccn2)ccc1-c1nc([C@@H]2CC[C@H]3CCC(=O)N3C2)n2c(C(F)(F)F)cnc(N)c12 [Example 206, 4-{8-amino-3-[(6R,8aS)-3-oxooctahydroindolizin-6-yl]-5-(trifluoromethyl)imidazo [1,5-a]pyrazin-1-yl}-3-ethoxy-N-[4-(trifluoromethyl)pyridin-2-yl]benzamide]
0.58 nM | 377 nM | CCc1ccnc(NC(=O)c2ccc(-c3nc([C@@H]4CC[C@H]5CCC(=O)N5C4)n4c(Cl)cnc(N)c34)c(OC)c2)c1 [Example 207, 4-{8-amino-5-chloro-3-[(6R,8aS)-3-oxooctahydroindolizin-6-yl]imidazo[1,5-a]pyrazin-1-yl}-N-(4-ethylpyridin-2-yl)-3-methoxybenzamide]
1.6 nM | 386 nM | COc1ccnc(NC(=O)c2ccc(-c3nc([C@@H]4CC[C@H]5CCC(=O)N5C4)n4c(Cl)cnc(N)c34)c(OC)c2)c1 [Example 208, 4-{8-amino-5-chloro-3-[(6R,8aS)-3-oxooctahydroindolizin-6-yl]imidazo[1,5-a]pyrazin-1-yl}-3-methoxy-N-(4-methoxypyridin-2-yl)benzamide]
0.41 nM | 582 nM | COc1cc(C(=O)Nc2cc(C3CCC3)ccn2)ccc1-c1nc([C@@H]2CC[C@H]3CCC(=O)N3C2)n2c(Cl)cnc(N)c12 [Example 209, 4-{8-amino-5-chloro-3-[(6R,8aS)-3-oxooctahydroindolizin-6-yl]imidazo[1,5-a]pyrazin-1-yl}-N-(4-cyclobutylpyridin-2-yl)-3-methoxybenzamide]
1.4 nM | 1120 nM | COc1cc(C(=O)Nc2ccc(C)cn2)ccc1-c1nc([C@@H]2CC[C@H]3CCC(=O)N3C2)n2c(Cl)cnc(N)c12 [Example 210, 4-{8-amino-5-chloro-3-[(6R,8aS)-3-oxooctahydroindolizin-6-yl]imidazo[1,5-a]pyrazin-1-yl}-3-methoxy-N-(5-methylpyridin-2-yl)benzamide]
9 nM | 269 nM | Nc1ncc(C(F)(F)F)n2c([C@@H]3CC[C@H]4CCC(=O)N4C3)nc(-c3ccc(C(=O)Nc4cc(C(F)(F)F)ccn4)cc3Cl)c12 [Example 211, 4-{8-amino-3-[(6R,8aS)-3-oxooctahydroindolizin-6-yl]-5-(trifluoromethyl)imidazo[1,5-a]pyrazin-1-yl}-3-chloro-N-[4-(trifluoromethyl)pyridin-2-yl]benzamide]
3.8 nM | 86.9 nM | Nc1ncc(C(F)(F)F)n2c([C@@H]3CC[C@H]4CCC(=O)N4C3)nc(-c3ccc(C(=O)Nc4cc(C5CC5)ccn4)cc3F)c12 [Example 212, 4-{8-amino-3-[(6R,8aS)-3-oxooctahydroindolizin-6-yl]-5-(trifluoromethyl)imidazo [1,5-a]pyrazin-1-yl}-N-(4-cyclopropylpyridin-2-yl)-3-fluorobenzamide]
2.7 nM | 699 nM | COc1cc(C(=O)Nc2cc(C(F)(F)F)ccn2)ccc1-c1nc([C@@H]2CC[C@H]3CCC(=O)N3C2)n2c(C(F)(F)F)cnc(N)c12 [Example 213, 4-{8-amino-3-[(6R,8aS)-3-oxooctahydroindolizin-6-yl]-5-(trifluoromethyl)imidazo[1,5-a]pyrazin-1-yl}-3-methoxy-N-[4-(trifluoromethyl)pyridin-2-yl]benzamide]
2.2 nM | 517 nM | Cc1cc(C(=O)Nc2cc(C(F)(F)F)ccn2)cc(F)c1-c1nc([C@@H]2CC[C@H]3CCC(=O)N3C2)n2ccnc(N)c12 [Example 214, 4-{8-amino-3-[(6R,8aS)-3-oxooctahydroindolizin-6-yl]imidazo[1,5-a]pyrazin-1-yl}-3-fluoro-5-methyl-N-[4-(trifluoromethyl)pyridin-2-yl]benzamide]
4 nM | 2470 nM | CCOc1cc(C(=O)Nc2cc(C(F)(F)F)n(C)n2)ccc1-c1nc([C@@H]2CC[C@H]3CCC(=O)N3C2)n2c(C(F)(F)F)cnc(N)c12 [Example 215, 4-{8-amino-3-[(6R,8aS)-3-oxooctahydroindolizin-6-yl]-5-(trifluoromethyl)imidazo[1,5-a]pyrazin-1-yl}-3-ethoxy-N-[1-methyl-5-(trifluoromethyl)-1H-pyrazol-3-yl]benzamide]
6.6 nM | 895 nM | CC(F)(F)Oc1cc(C(=O)Nc2cc(C(F)(F)F)ccn2)ccc1-c1nc([C@@H]2CC[C@H]3CCC(=O)N3C2)n2c(Cl)cnc(N)c12 [Example 216, 4-{8-amino-5-chloro-3-[(6R,8aS)-3-oxooctahydroindolizin-6-yl]imidazo[1,5-a]pyrazin-1-yl}-3-(1,1-difluoroethoxy)-N-[4-(trifluoromethyl)pyridin-2-yl]benzamide]
0.17 nM | 714 nM | COc1cc(C(=O)Nc2cc(C(F)(F)F)ccn2)cc(F)c1-c1nc([C@@H]2CC[C@H]3CCC(=O)N3C2)n2c(Cl)cnc(N)c12 [Example 217, 4-{8-amino-5-chloro-3-[(6R,8aS)-3-oxooctahydroindolizin-6-yl]imidazo[1,5-a]pyrazin-1-yl}-3-fluoro-5-methoxy-N-[4-(trifluoromethyl)pyridin-2-yl]benzamide]
1.8 nM | 4850 nM | COc1cc(C(=O)Nc2cc(C(F)(F)F)ccn2)c(Cl)cc1-c1nc([C@@H]2CC[C@H]3CCC(=O)N3C2)n2c(Cl)cnc(N)c12 [Example 218, 4-{8-amino-5-chloro-3-[(6R,8aS)-3-oxooctahydroindolizin-6-yl]imidazo[1,5-a]pyrazin-1-yl}-2-chloro-5-methoxy-N-[4-(trifluoromethyl)pyridin-2-yl]benzamide]
0.28 nM | 726 nM | COc1cc(C(=O)Nc2cc(C(F)(F)F)ccn2)cc(F)c1-c1nc([C@@H]2CC[C@H]3CC(C)(C)C(=O)N3C2)n2ccnc(N)c12 [Example 219, 4-{8-amino-3-[(6R,8aS)-2,2-dimethyl-3-oxooctahydroindolizin-6-yl]imidazo[1,5-a]pyrazin-1-yl}-3-fluoro-5-methoxy-N-[4-(trifluoromethyl)pyridin-2-yl]benzamide]
0.4 nM | 1520 nM | COc1cc(C(=O)Nc2cc(C(F)(F)F)ccn2)cc(F)c1-c1nc([C@@H]2CC[C@H]3CCC(=O)N3C2)n2c(F)cnc(N)c12 [Example 220, 4-{8-amino-5-fluoro-3-[(6R,8aS)-3-oxooctahydroindolizin-6-yl]imidazo[1,5-a]pyrazin-1-yl}-3-fluoro-5-methoxy-N-[4-(trifluoromethyl)pyridin-2-yl]benzamide]
